Data from article PMC7274078, “Brain Endothelial Cells Regulate Glucagon-Like Peptide 1 Entry Into the Brain via a Receptor-Mediated Process” (Frontiers in Physiology, 2020).

Tests used:
[1] = system: Rat brain microvascular endothelial cells (RBMECs); assay: Endothelial cell uptake of GLP-1-FAM; assay type: cell-based
Procedure: Rat brain microvascular endothelial cells (RBMECs; Cell Applications, San Diego, CA, United States) were cultured on a cover slip in rat brain endothelial cell growth medium. After reaching confluency, cells were pre-treated with vehicle (PSS buffer), exendin 9-39 (10 nM) or H89 (Sigma-Aldrich, St. Louis, MO, United States) (10 μM) for 30 min or forskolin (Sigma-Aldrich, St. Louis, MO, United States) (10 μM) for 5 min. Cells were then incubated with GLP-1-FAM at either 10, 100 or 1,000 pM for 3 min at 37°C. DAPI was used to stain the nucleus. After fixation and washing three times with cold TBST (5 min each time), cell images were captured using confocal microscope and fluorescence intensity measured using ImageJ software^1. FAM signal from surface binding of FAM was examined by incubating cells with GLP-1-FAM at 4 or 37°C for 3 min, or free FAM (10, 100, and 1,000 pM) at 37°C for 3 min.
FIGURE 5 GLP-1 uptake by RBMECs is GLP-1 receptor and PKA dependent. RBMECs were pretreated with vehicle (PSS buffer, A,E,I), Exendin 9-39 (10 nM, B,F,J) or H89 (10 μM, C,G,K) for 30 min. Cells were then incubated with GLP-1-FAM at 10, 100 pM or 1 nM for 3 min. DAPI was used to stain the nucleus. Images were captured using confocal microscope. Fluorescence density was analyzed using ImageJ. (D,H,L) Quantitative analysis (n = 3, *p < 0.01, vs. vehicle, Student’s t test). GLP-1R – GLP-1 receptor.
FIGURE 6 cAMP agonist increases GLP-1 uptake by RBMECs. (A) RBMECs were incubated with GLP-1-FAM at 10 pM for 3 min with or without 10 μM forskolin. DAPI was used to stain the nucleus. Images was captured using confocal microscope. Fluorescence density was analyzed using ImageJ. (B) quantitative analysis of the images (n = 6, *p < 0.05, vs. vehicle, Student’s t test).

GLP-1 receptor = target: T1, GLP-1 receptor (Rattus norvegicus, UniProt P32301); assay: Effect of GLP-1 receptor antagonist infusion on brain uptake of labeled GLP-1 or exendin-4; assay type: in vivo; settings: exendin-(9-39) 30 nmol/kg/min for 20 min
T1 construct: from tissue; host or cells: live rat; brain regions (cerebellum, cortex, hippocampus, hypothalamus, brain stem) and brain microvasculature
T1 sequence (P32301 22-463): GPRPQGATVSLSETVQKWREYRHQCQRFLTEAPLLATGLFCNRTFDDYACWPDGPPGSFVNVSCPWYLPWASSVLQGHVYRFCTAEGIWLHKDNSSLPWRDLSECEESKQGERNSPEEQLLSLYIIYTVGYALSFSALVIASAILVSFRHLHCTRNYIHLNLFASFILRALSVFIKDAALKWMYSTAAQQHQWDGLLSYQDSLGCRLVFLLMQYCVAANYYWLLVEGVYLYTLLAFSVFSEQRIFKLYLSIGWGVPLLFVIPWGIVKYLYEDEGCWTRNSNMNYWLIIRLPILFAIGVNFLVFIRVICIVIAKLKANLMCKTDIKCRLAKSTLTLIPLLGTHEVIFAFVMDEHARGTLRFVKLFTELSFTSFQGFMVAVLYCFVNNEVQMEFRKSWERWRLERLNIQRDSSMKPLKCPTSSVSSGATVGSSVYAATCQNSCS
Procedure: Rats received a systemic infusion of either saline or exendin-(9-39) (GLP-1 receptor antagonist, 30 nmol/kg/min, Abcam, Cambridge, United Kingdom) via the jugular vein catheter for 20 min (Figure 1A). In the last 10 min, rats also received 30 pmol/kg/min of either GLP-1-FAM (AnaSpec, Fremont, CA, United States) or exendin-4-FAM (AnaSpec, Fremont, CA, United States) together with Dextran-TRITC (Sigma-Aldrich, St. Louis, MO, United States) (70 kD, vascular space marker, 30 pmol/kg/min). […] After collecting plasma samples, rats were sacrificed via anesthetic overdose and various brain regions (cerebellum, cortex, hippocampus, hypothalamus, and brain stem) collected, homogenized and lysed in lysis buffer. Fluorescence from TRITC and FAM were measured in both plasma and brain lysates. Protein concentrations were determined in the brain lysates. Brain uptake of GLP-1-FAM and exendin-4-FAM were calculated using the following formula:
Tissue fluorescence [FAM]/Tissue weight (μg)−TissueFluorescence [TRITC]/Weight(μg)/PlasmaFluorescence [TRITC]/200(μL)×Plasma Fluorescence [FAM]/200μL
FIGURE 1 GLP-1 and GLP-1 analog exendin-4 enter various brain regions via GLP-1 receptor-mediated process. (A) Protocol. […]

[2] = system: RBMEC and astrocyte barrier; assay: Trans-endothelial GLP-1 transport (Transwell artificial BBB); assay type: in vitro ADME, rat; settings: exendin-(9-39) 100 nM, 10 min pre-treatment and during transport; GLP-1-FAM 100 pM; n = 7, p < 0.01
Procedure: The trans-endothelial GLP-1 transport was examined using a Transwell system that mimics the BBB in that RBMECs were co-cultured with astrocytes as illustrated in Figure 7A and previously described ([Gaillard et al., 2001]). Briefly, astrocytes (Thermo Fisher Scientific, Waltham, MA, United States) were seeded on the bottom and RBMECs were then seeded onto the top of the Transwell insert (6.5 mm diameter, 1 μm pore size, polyester membrane; Corning, Corning, NY, United States). Trans-endothelial electrical resistance was monitored using a volt-ohmmeter (EVOM; WPI, Sarasota, FL, United States) and EndOhm chamber (EndOhm; WPI). When the trans-endothelial electrical resistance reached its peak, the insert with double cell layers was washed twice at 37°C with PBS buffer. […] The amount of GLP-1-FAM or inulin-FITC transported to the lower chamber was determined by measuring FAM and FITC fluorescence in the lower chamber at 5, 10, and 30 min. Inulin-FITC transport was used to correct for paracellular transport and the amount of trans-endothelial transport of GLP-1-FAM was calculated using the formula:
Transcellular transport (%)=Fluorescence [FAM]/Reference [FAM]×100−Fluorescence [FITC]/Reference [FITC]×100
Reference refers to fluorescence in the lower chamber at the specified time point when the Transwell inserts had no cells seeded. To determine if this trans-endothelial transport is dose-dependent, 10, 100, and 1,000 pM GLP-1-FAM or inulin-FITC (with DDP-4 inhibitor) was loaded into the upper chamber, the amount of GLP-1-FAM or inulin-FITC in the lower chamber was determined at 10 min, and trans-endothelial transport of GLP-1 was calculated.
FIGURE 7 Trans-endothelial transport of GLP-1 is a GLP-1 receptor-mediated process. […] GLP-1-FAM or inulin-FITC transport to the lower chamber was determined by measuring FAM and FITC fluorescence in the lower chamber. […]

[3] = pre-treatment 30 min with exendin 9-39 10 nM or H89 10 μM, GLP-1-FAM 10, 100 or 1,000 pM for 3 min at 37°C, n = 3, p < 0.01 vs vehicle

Row | Compound | effect on RBMEC uptake of GLP-1-FAM [1, 3] | effect on RBMEC uptake of GLP-1-FAM ([1]; forskolin 10 μM, 5 min, GLP-1-FAM 10 pM for 3 min, n = 6, p < 0.05 vs vehicle) | effect on amount of GLP-1-FAM fluorescence in various brain regions (GLP-1 receptor; GLP-1-FAM 30 pmol/kg/min in last 10 min, n = 7, p < 0.05) | effect on exendin-4-FAM fluorescence in various brain regions (GLP-1 receptor; exendin-4-FAM 30 pmol/kg/min in last 10 min, n = 6, p < 0.05) | effect on trans-endothelial transport of labeled GLP-1 [2]
1 | O=S(=O)(NCCNC/C=C/c1ccc(Br)cc1)c1cccc2cnccc12 [H89] | blunted |  |  |  | 
2 | C=C[C@@]1(C)CC(=O)[C@]2(O)[C@@]3(C)[C@@H](O)CCC(C)(C)[C@@H]3[C@H](O)[C@H](OC(C)=O)[C@@]2(C)O1 [forskolin] |  | significantly enhanced |  |  | 
3 | exendin-(9-39) | blunted |  | markedly decreased | almost completely abolished | inhibited
